According to US20160340659A1, “ACTIN BINDING PEPTIDES AND COMPOSITIONS COMPRISING SAME FOR INHIBITING ANGIOGENESIS AND TREATING MEDICAL CONDITIONS ASSOCIATED WITH SAME” (YISSUM RESEARCH AND DEVELOPMENT COMPANY OF THE HEBREW …, priority 2014, published 2016):
Entries after “also recorded” stand apart in the source; their conditions may differ. Where no end group is shown, it is not given here.

Experiments:
[1] = system: chick Chorio-Allantoic Membrane (CAM); test: Ex ovo CAM angiogenesis assay; assay type: in vivo, chicken; settings: 3 μg on paper disk daily for four days from day 8; compared to PBS control
Method: In this assay, in-vivo angiogenesis is assessed on live chick embryos grown in petri dishes. Fertilized eggs are cracked into a petri dish after a few (e.g. 3) days incubation at appropriate temperature (e.g. 37° C.) and humidity. In the following days, the embryos developed a vascular network, which can then easily be exposed to any treatment or combination of treatments, for example, via delivery onto absorbent disks placed on/about the developing vascular regions. Angiogenesis is scored by periodically (e.g. 1×/day, 2×/day, 1×/2 days, 1×/4 days, etc) counting the number of blood vessels around the disk.
Fertilized chicken eggs were incubated horizontally at 37° C. and humidity of 60-62% and cracked into Petri dishes at embryonic day 4. Incubation was continued under the same conditions. […] Treatment was given every day for four days, then, the number of blood vessels around the treated disks was counted.

HUVEC = HUVEC tube formation assay on Matrigel; assay type: cell-based, human; settings: peptides at 2 μM, compared to Control; for inhibition of VEGF-induced tube formation: 1 μg/ml VEGF; for inhibition of angiogenin-induced tube formation: 1 μg/ml angiogenin
Method: FIGS. 6A-6D illustrate in-vitro inhibition of angiogenesis in the HUVEC model by T2 peptides. HUVEC cells plated on Matrigel™ were exposed to 2 μM of T2 peptides A103-Q159 (SEQ ID NO: 60), K108-K133 (SEQ ID NO: 57) or K108-L123 (SEQ ID NO: 67), in addition to 1 μg/ml of angiogenin or VEGF as the angiogenic agent, as indicated. Control wells received PBS. FIG. 6B-Results were assessed by imaging software, and quantified, and expressed relative to tube formation with angiogenin or VEGF alone (100%) Column 1=angiogenin, column 2=angiogenin+SEQ ID NO: 60, column 3=angiogenin+SEQ ID NO: 57, column 4=angiogenin+[…], Column 5=VEGF, column 6=VEGF+SEQ ID NO: 60, column 7=VEGF+SEQ ID NO: 57, column 8=VEGF+[…]. FIGS. 6C and 6D illustrate the inhibitory effect of truncated human T2 polypeptide trT2-49m (SEQ ID NO: 129) on angiogenin and VEGF induced HUVEC tube formation. Note the significant inhibition of HUVEC tube formation by all of the T2 peptides assayed, and in particular, K108-K133 (SEQ ID NO: 57);
HUVEC (CC-2519)(fresh or commercially provided) are maintained in M199 rrrediurn supplemented with 20% FCS, 1% glutamine, 1% antibiotic-antimycotic solution, ECGF, and heparin, plated in a 96-well plate (14×10^3 cells/well) previously coated with growth factor-depleted Matrigel™ (BD Biosciences), in M199 medium containing 5% FCS and 0.005% ECGF. The wells are supplemented with candidate T2 RNase peptides or PBS, and angiogenic growth factors (1 μg/ml angiogenin, bFGF or VEGF) to a final volume of 120 pl. Plates are incubated (overnight), photographed and the extent of tube formation (angiogenesis) assessed.

actin [2] = biological target: T1, actin (Oryctolagus cuniculus, UniProt P68135); test: Actin binding solid phase assay; settings: immobilized actin, 0-500 ng/100 μl well
Method: 96-well plates (MaxiSorp® flat-bottom 96-well plate, Fisher Scientific Inc., Fair Lawn, N.J.) were coated with 500 ng actin in 100 μl carbonate-bicarbonate buffer (pH 9.5) for 1 h at 37° C. The plate was washed once with TBS and then blocked with 3% BSA in 200 μl TBS buffer at 37° C., for 1 h. Wells were then washed once with 250 μl TBS. trT2-49, trT2-49m or each of the 29 peptides were added at 1:2 dilutions in 100 μl TBS, starting from 500 ng/well, incubated for 1 h at 37° C. and then washed three times with TBS containing 0.1% Tween-20 (TBST). Each well was then treated with 100 μl rabbit anti-trT2-49 diluted 1:500 in TBS and incubated for 1 h at 37° C. The wells were washed three times with TBST and then incubated with 100 μl goat anti-rabbit IgG-HRP (Jackson ImmunoResearch, West Grove, Pa.) diluted 1:10,000 in TBS, for 1 h at 37° C. Wells were then washed twice with TBST, and once with TBS before 100 μl substrate (1-step Ultra TMB-ELISA, Pierce, Fisher Scientific Inc.) were added. Absorbance at 655 nm was measured 10 min thereafter using a Power Wave 200 Microplate Scanning Spectrophotometer (Bio-Tek Instrument, Winooski, Vt.). Affinity was evaluated by double reciprocal plotting.

actin [3] = biological target: T1, actin; test: Surface plasmon resonance (BIAcore) of actin binding; settings: actin on CM5 chip, 25° C.
Method: SPR was performed on a BIAcore 3000 instrument (BIAcore, Uppsala, Sweden). Actin was diluted in 100 mM CH3COONa pH 4.6 to a final concentration of 20 μg/ml (200 μl total) resulting in ˜1 ng immobilized actin on a CM5 BIAcore sensor chip (GE Healthcare Bio-Sciences AB) using the standard BIAcore amine coupling chemistry protocol. The CM5 chip allows four separate flow cells to be operated in the BIAcore 3000 instrument used in these experiments. Coupling is achieved by activating the surface of the sensor chips with equal volumes of 50 mM N-hydroxysuccimide (NHS)/200 mM Nethyl-N-(3-[…])-carboiimide (EDC) (BIAcore, AB, Uppsala, Sweden) to form activated carboxyl groups. An actin solution […] was run over the chip for 5 min at a rate of 10 μl/min, allowing the amine groups on the protein to react with the activated esters. In the final stage of immobilization, the surface was blocked by 1M ethanol amine, pH 8.0. The binding assay was performed by injecting the hRNASET2, trT2-49, trT2-49m or peptides solutions in running buffer (HBS—10 mM Hepes, 150 mM Sodium Chloride, 3 mM EDTA, 0.005% Polysorbate 20) at 5 different concentrations at a flow rate of 10 μl/min at 25° C. Injections were performed simultaneously over all four channels and blank surface (a plain dextran matrix, channel 1) was used as control. The net signal was obtained by subtracting the blank signal from the signal of the immobilized surface. The association phase for protein or peptides binding to actin was followed for 4 min, and dissociation phases were monitored for 3 min. Surface regeneration between consecutive binding cycles included a 1 min injection of 1 mM NaOH. The response was monitored as a function of time (sensorgram) at 25° C. Multi-concentration data were globally fit using BIA evaluation 3.2 software.
The strength of a two molecule interaction is characterized by the equilibrium dissociation (binding) constant KD=[P][L]/[PL], where [P] is the concentration of free protein (or peptide), [L] the concentration of ligand and [PL] the concentration of the complex. […]

Sequence	inhibition of angiogenesis (number of blood vessels around disk) [1]	inhibition of VEGF-induced tube formation (HUVEC) [%]	inhibition of angiogenin-induced tube formation (HUVEC) [%]	actin binding in solid-phase assay (actin [2]; listed as A103-Q159)	kon (actin [3]; read-out: Ka × 10^3) [M⁻¹ s⁻¹]	actin binding in solid-phase assay (actin [2]; listed as K108-K133)	Ka × 10^3 (actin [3])
ALNSQKKYFGRSLELYRELDLNSVLLKLGIKPSINYYQVADFKDALARVYGVIPKIQ [SEQ ID NO: 60]	effective in inhibiting angiogenesis	~40	~40	most effective actin binding peptides amongst the 29 candidate peptides; also recorded: effective and concentration-dependent binding of actin	1060		
KKYFGRSLELYRELDLNSVLLKLGIK [SEQ ID NO: 57, 26-amino acid peptide representing amino acids 108-133 of RNASET2]	effective in inhibiting angiogenesis	~75	~50			most effective actin binding peptides amongst the 29 candidate peptides; also recorded: effective and concentration-dependent binding of actin	3.32 ×10^3 1/Ms
